US20050182128A1, “Use of anethole dithiolethione in lung cancer chemoprevention” (priority 2002, published 2005)
Entries after “also recorded” stand apart in the source; their conditions may differ.

Columns and labels:
aflatoxin tumorigenicity = settings: rats; cited from earlier work
bronchial dysplasia = assay: Phase IIb randomized placebo-controlled trial: histopathology grade of bronchial biopsies before and after six months; format: in vivo, human
Protocol: One hundred and one volunteer current and former smokers with ≧30 pack-years smoking history and bronchial dysplasia identified by autofluorescence bronchoscopy directed biopsies were randomly assigned to receive ADT 25 mg orally TID or placebo for six months followed by a repeat bronchoscopy and biopsy of the same sites plus any new areas suspicious of dysplasia. Changes in the histopathology grade of the biopsies were used as the primary endpoint biomarker. All P values were two-sided.
Assessment For Eligibility. Five hundred and fifty-eight current and former smokers over 40 years of age in the Greater Vancouver area with a smoking history of ≧30 pack-years were invited to take part in the study. A former smoker was defined as one who had given up smoking for a year or more. They were recruited through the community outreach network of the public relations department of the British Columbia Cancer Agency (BCCA) using television programs, radio broadcasts and local newspapers. Following an initial interview, which included a questionnaire to document the smoking history, a sputum sample was obtained by induction using simultaneous high frequency chest wall oscillation with the ABI vest (Advanced Respiratory Inc. St. Pauls, Minn.) and 3% hypertonic saline for 12 minutes. […] Of these, 262 agreed to have an autofluorescence bronchoscopy with the LIFE-Lung device (Xillix Technologies Corp., Richmond, BC, Canada) (Lam et al., 1998; Lam et al., 1999). Biopsies were taken from areas with abnormal fluorescence (Lam et al., 1998; Lam et al., 1999). In addition, at least two control biopsies were taken from an upper or lower lobe. The average number of biopsies per subject was 6.7 (range 4 to 12).
Randomization. Participants with one or more sites of bronchial dysplasia were randomly assigned to receive either Sialor® (Solvay Pharma, France) at a dose of 25 mg three times daily by mouth or its placebo for six months. The placebo tablets were identical in size, shape and color to the active drug. Randomization codes were generated by a statistician at the Population and Prevention Oncology Division of BCCA and distributed to the BCCA pharmacy. All study personnel were blinded to the study coeds. Randomization was stratified according to the smoking status (current or former smoker) and dysplasia grade (mild, moderate or severe). Once a participant met the enrollment criteria, the study nurse contacted the pharmacist who then provided the study medication according to the randomization code.
Follow Up. The participants were seen monthly for examination of drug related adverse events. Liver enzymes were measured at baseline and at months 3 and 6 for toxicity monitoring. Fluorescence bronchoscopy was repeated after 6 months of study medication. The bronchoscopist was blinded to the intervention assignment. All previously biopsied sites were identified and re-biopsied under fluorescence bronchoscopy. Biopsy was also taken from new areas with abnormal fluorescence.
The primary outcome of the study was changes in the histopathology grade of the bronchial biopsies before and after six months of intervention. The secondary endpoint was changes in the nuclear morphometry index of the bronchial biopsies.
The biopsies were fixed in buffered formalin, embedded in paraffin, sectioned and stained with hematoxylin-eosin (H&E). Two pathologists (JCL, AFG) systematically reviewed them. The pathologists were blinded to the treatment assignments. All biopsies were classified into one of seven groups. Normal: as represented by pseudostratified ciliated columnar epithelium. Basal cell hyperplasia: as represented by an increase in the number and stratification of normal-appearing basal cells still covered with normal ciliated or mucin secreting cells. Metaplasia: as represented by a stratified epithelium and cytoplasmic changes consistent with squamoid differentiation. […]

[1] = system: intracellular glutathione; settings: animals pretreated with various toxins and normal animals; cited from earlier work
lipid peroxidation = settings: in-vitro, rat liver microsome model; cited from earlier work
nuclear factor NFκB = settings: human Jurkat cells; cited from earlier work
[2] = histopathology, lesion specific, 6 months
[3] = histopathology, person specific, of 56

Q: With `COc1ccc(-c2cc(=S)ss2)cc1` [ADT, 5-(p-methoxyphenyl)-1,2-dithiole-3-thione] as the compound, how does the “Protection against aflatoxin tumorigenicity” value (aflatoxin tumorigenicity) read?
A: protective action against aflatoxin tumorigenicity

Q: What about the “Progression of pre-existing dysplastic lesions and/or appearance of new lesions compared to placebo” value (bronchial dysplasia; 6 months, 25 mg orally TID) of the same compound?
A: significantly lower rate of progression; also recorded: statistically reduces the appearances of new dysplastic lesion or progression of pre-existing dysplastic lesions

Q: And the “CR or PD rates, full dose compared to reduced dose” value (bronchial dysplasia; all P-values >0.90)?
A: no significant difference in the CR or PD rates

Q: What about the “Biopsies of grade 1 (normal/hyperplasia) at 6 months follow-up” value (from here on “Biopsies of grade 1 (normal/hyperplasia)”) (bronchial dysplasia; baseline grade 1) of the same compound?
A: 100

Q: What about the “Biopsies of grade 2 (metaplasia) at 6 months follow-up” value (“Biopsies of grade 2 (metaplasia)” for short) (bronchial dysplasia; baseline grade 1) of the same compound?
A: 9

Q: What about the “Biopsies of grade 3 (mild dysplasia) at 6 months follow-up” value (“Biopsies of grade 3 (mild dysplasia)” for short) (bronchial dysplasia; baseline grade 1) of the same compound?
A: 5

Q: And the “Biopsies of grade 4 (moderate dysplasia) at 6 months follow-up” value (“Biopsies of grade 4 (moderate dysplasia)” for short) (bronchial dysplasia; baseline grade 1)?
A: 2

Q: What about the “Biopsies of grade 5 (severe dysplasia) at 6 months follow-up” value (“Biopsies of grade 5 (severe dysplasia)” for short) (bronchial dysplasia; baseline grade 1) of the same compound?
A: 0

Q: What about the “Biopsies of grade 1 (normal/hyperplasia)” value (bronchial dysplasia; baseline grade 2) of the same compound?
A: 22

Q: And the “Biopsies of grade 2 (metaplasia)” value (bronchial dysplasia; baseline grade 2)?
A: 2

Q: What about the “Biopsies of grade 3 (mild dysplasia)” value (bronchial dysplasia; baseline grade 2) of the same compound?
A: 3

Q: And the “Biopsies of grade 4 (moderate dysplasia)” value (bronchial dysplasia; baseline grade 2)?
A: 0

Q: What about the “Biopsies of grade 5 (severe dysplasia)” value (bronchial dysplasia; baseline grade 2) of the same compound?
A: 0

Q: What about the “Biopsies of grade 1 (normal/hyperplasia)” value (bronchial dysplasia; baseline grade 3) of the same compound?
A: 53

Q: And the “Biopsies of grade 2 (metaplasia)” value (bronchial dysplasia; baseline grade 3)?
A: 14

Q: What about the “Biopsies of grade 3 (mild dysplasia)” value (bronchial dysplasia; baseline grade 3) of the same compound?
A: 27

Q: What about the “Biopsies of grade 4 (moderate dysplasia)” value (bronchial dysplasia; baseline grade 3) of the same compound?
A: 6

Q: And the “Biopsies of grade 5 (severe dysplasia)” value (bronchial dysplasia; baseline grade 3)?
A: 0

Q: What about the “Biopsies of grade 1 (normal/hyperplasia)” value (bronchial dysplasia; baseline grade 4) of the same compound?
A: 8

Q: And the “Biopsies of grade 2 (metaplasia)” value (bronchial dysplasia; baseline grade 4)?
A: 0

Q: What about the “Biopsies of grade 3 (mild dysplasia)” value (bronchial dysplasia; baseline grade 4) of the same compound?
A: 2

Q: And the “Biopsies of grade 4 (moderate dysplasia)” value (bronchial dysplasia; baseline grade 4)?
A: 3

Q: And the “Biopsies of grade 5 (severe dysplasia)” value (bronchial dysplasia; baseline grade 4)?
A: 1

Q: And the “Biopsies of grade 1 (normal/hyperplasia)” value (bronchial dysplasia; baseline grade 5)?
A: 0

Q: What about the “Biopsies of grade 2 (metaplasia)” value (bronchial dysplasia; baseline grade 5) of the same compound?
A: 0

Q: What about the “Biopsies of grade 3 (mild dysplasia)” value (bronchial dysplasia; baseline grade 5) of the same compound?
A: 2

Q: What about the “Biopsies of grade 4 (moderate dysplasia)” value (bronchial dysplasia; baseline grade 5) of the same compound?
A: 0

Q: And the “Biopsies of grade 5 (severe dysplasia)” value (bronchial dysplasia; baseline grade 5)?
A: 0

Q: What about the “Biopsies of grade 1 (normal/hyperplasia)” value (bronchial dysplasia; baseline: not sampled) of the same compound?
A: 34

Q: And the “Biopsies of grade 2 (metaplasia)” value (bronchial dysplasia; baseline: not sampled)?
A: 8

Q: And the “Biopsies of grade 3 (mild dysplasia)” value (bronchial dysplasia; baseline: not sampled)?
A: 13

Q: What about the “Biopsies of grade 4 (moderate dysplasia)” value (bronchial dysplasia; baseline: not sampled) of the same compound?
A: 0

Q: What about the “Biopsies of grade 5 (severe dysplasia)” value (bronchial dysplasia; baseline: not sampled) of the same compound?
A: 1

Q: And the CR rate (bronchial dysplasia; dose reduction yes)?
A: 24%

Q: What about the PD rate (bronchial dysplasia; dose reduction yes) of the same compound?
A: 32%

Q: And the PR rate (bronchial dysplasia; dose reduction yes)?
A: 32%

Q: And the “CR, number of participants” value (bronchial dysplasia; dose reduction yes, of 25)?
A: 6

Q: And the “PD, number of participants” value (bronchial dysplasia; dose reduction yes, of 25)?
A: 8

Q: And the “PR, number of participants” value (bronchial dysplasia; dose reduction yes, of 25)?
A: 8

Q: What about the “PD rate lower than placebo, person specific analysis” value (bronchial dysplasia; histopathology, 6 months) of the same compound?
A: 22%

Q: What about the “Partial response (PR) rate, person specific analysis” value (bronchial dysplasia; histopathology, 6 months) of the same compound?
A: (23%)

Q: And the “Stable disease (SD) rate, person specific analysis” value (bronchial dysplasia; histopathology, 6 months)?
A: (18%)

Q: And the “Progressive disease (PD) rate, lesion specific analysis” value (bronchial dysplasia; histopathology, 6 months ADT 25 mg orally TID, placebo 17%, P<0.001)?
A: 8%

Q: And the “Complete response (CR) rate, lesion specific analysis” value (bronchial dysplasia; histopathology, 6 months, placebo 41%, P=0.14)?
A: 53%

Q: And the “PD rate lower than placebo, lesion specific analysis” value (bronchial dysplasia; histopathology, 8% ADT versus 17% placebo)?
A: 9%

Q: And the “CR rate higher than placebo, person specific analysis” value (bronchial dysplasia; histopathology, 27% versus 16%)?
A: 11%

Q: And the “CR rate higher than placebo, lesion specific analysis” value (bronchial dysplasia; histopathology, 53% versus 41%, not significant)?
A: 12%

Q: What about the “CR lesions / dysplastic lesions at baseline” value (bronchial dysplasia; [2]) of the same compound?
A: 61/116

Q: And the “PD lesions / all biopsies” value (bronchial dysplasia; [2])?
A: 24/315

Q: What about the “CR, number of participants” value (bronchial dysplasia; [3]) of the same compound?
A: 15

Q: What about the “PD, number of participants” value (bronchial dysplasia; [3]) of the same compound?
A: 18

Q: And the “PR, number of participants” value (bronchial dysplasia; [3])?
A: 13

Q: And the “Association of treatment with odds of CR” value (bronchial dysplasia; multiple logistic regression)?
A: not significantly associated with increasing odds of CR

Q: And the “OR, likelihood of progressive disease six months after intervention” value (bronchial dysplasia; multiple logistic regression, ADT is reference, placebo OR 3.5 (95% CI 1.3-9.3, P 0.01))?
A: 1

Q: And the PD rate (bronchial dysplasia; no dose reduction)?
A: 32%

Q: What about the PR rate (bronchial dysplasia; no dose reduction) of the same compound?
A: 16%

Q: What about the CR rate (bronchial dysplasia; no dose reduction (full 25 mg TID)) of the same compound?
A: 29%

Q: And the “CR, number of participants” value (bronchial dysplasia; no dose reduction (full 25 mg TID), of 31)?
A: 9

Q: And the “PD, number of participants” value (bronchial dysplasia; no dose reduction, of 31)?
A: 10

Q: What about the “PR, number of participants” value (bronchial dysplasia; no dose reduction, of 31) of the same compound?
A: 5

Q: What about the “Biopsies of grade 1 (normal/hyperplasia)” value (bronchial dysplasia; total of all baseline grades) of the same compound?
A: 217

Q: And the “Biopsies of grade 2 (metaplasia)” value (bronchial dysplasia; total of all baseline grades)?
A: 33

Q: What about the “Biopsies of grade 3 (mild dysplasia)” value (bronchial dysplasia; total of all baseline grades) of the same compound?
A: 52

Q: And the “Biopsies of grade 4 (moderate dysplasia)” value (bronchial dysplasia; total of all baseline grades)?
A: 11

Q: And the “Biopsies of grade 5 (severe dysplasia)” value (bronchial dysplasia; total of all baseline grades)?
A: 2

Q: And the Intracellular glutathione [1]?
A: increase of intracellular glutathione

Q: What about the “Inhibition of lipid peroxidation” value (lipid peroxidation) of the same compound?
A: potent inhibitor of lipid peroxidation

Q: What about the “Modulation of NFκB activation” value (nuclear factor NFκB) of the same compound?
A: capable of modulating
